# Laboratory results as given in US11572371B2, “BRD4 inhibitor” (HINOVA PHARMACEUTICALS INC., priority 2017, dated 2023).
# Test system: CWR22RV1 cells
# Assay: Inhibition of CWR22RV1 cell proliferation (CCK-8)
# Format: cell-based
# Conditions: Homo sapiens, CWR22Rv1, 144 h, read-out: IC50 on CWR22RV1
# Description: Test Example 2 Biological Determination of the Inhibitory Effect of the Compound on CWR22RV1 Cell Proliferation
# Experimental Materials: • CWR22RV1 cell line (Cell bank of Chinese Academy of Sciences, TCHu100) • FBS (Gibco, Cat. No. 10099-141) • 0.01M PBS (Biosharp, Cat. No. 162262) • RIPM1640 (Hyclone, Cat. No. 308090.01) • Penicillin-Streptomycin (Hyclone, Cat. No. SV30010) • Cell counting kit-8(Signalway Antibody, Cat. No. CP002) • DMSO (Sigma, Cat. No. D5879) • Centrifuge Tube, 15 ml (Excell Bio, Cat. No. CS015-0001) • Cell Culture Dish, (Excell Bio, Cat. No. CS016-0128) • 96-well cell culture cluster (Corning, Cat. No. 3599)
# (1) CWR22RV1 cells were subcultured with cell culture medium, and well-growth cells were inoculated in 96-well plates, with 80 μL per well. The number of cells in each well was 1500, and the plate was cultured overnight in a 37° C., 5% CO2 cell incubator.
# (2) The drug was prepared as a 30 mM stock solution using dimethyl sulfoxide (DMSO). before use, the stock solution was diluted 3 times with DMSO, and then diluted by a 3 times gradient to obtain 9 concentration gradients. The compound at each concentration was further diluted 200 times with the culture solution (to ensure that the DMSO concentration in the culture system was 0.1%), and each concentration was repeated 2 wells. 20 μL of the diluted compound was added to the cell culture wells (with final concentrations of 10 μM, 3.3 μM, 1.1 μM . . . ), and gently shaked to mix. In addition, three negative control wells containing only cells and three blank control wells containing only culture medium (6 wells each containing 20 μL DMSO 200-fold diluted with culture medium) were set.
# (1) After being cultured for 6 days, 10 μL CCK-8 was added to each well, and the cells were further cultured in a 5% CO2 cell incubator at 37° C. for 2.5 hours.
# (2) The absorbance (OD value) was measured at 450 nm with a multifunctional microplate reader.
# (3) The data were analyzed with the Dose-response-inhibition equation in the software GraphPad Prism6, and IC50 values were obtained.
row,SMILES,IC50 [nM]
1,"Cc1sc2c(c1C)C(c1ccc(Cl)cc1)=N[C@@H](Cc1nnc(CO)o1)c1nnc(C)n1-2 [Compound 7, (S)-(5-((4-(4-chlorophenyl)-2,3,9-trimethyl-6H-thieno[3,2-f][1,2,4]triazolo[4,3-a][1,4]diaza-6-yl)methyl)-1,3,4-oxodiazole-2-yl)methanol]",89
2,"Cc1nnc(C[C@@H]2N=C(c3ccc(Cl)cc3)c3c(sc(C)c3C)-n3c(C)nnc32)o1 [Compound 21, (S)-2-((4-(4-chlorophenyl)-2,3 ,9-trimethyl-6H-thieno[3,2-f][1,2,4]triazolo[4,3-a][1,4]diaza-6-yl)methyl)-5-methyl-1,3,4-oxodiazole]",33
3,"Cc1sc2c(c1C)C(c1ccc(Cl)cc1)=N[C@@H](Cc1nnc(C(C)(C)C)o1)c1nnc(C)n1-2 [Compound 23, (S)-2-(t-butyl)-5-((4-(4-chlorophenyl)-2,3,9-trimethyl-6H-thieno[3,2-f][1,2,4]triazolo[4,3-a][1,4]diaza-6-yl)methyl) -1,3,4-oxodiazole]",179
4,"Cc1sc2c(c1C)C(c1ccc(Cl)cc1)=N[C@@H](Cc1nncn1C(C)C)c1nnc(C)n1-2 [Compound 25, (S)-4-(4-chlorophenyl)-6-((4-isopropyl-4H-1,2,4--3-yl)methyl)-2,3,9-trimethyl-6H-thieno[3,2-f][1,2,4]triazolo[4,3-a][1,4]diazepine]",1310
5,"Cc1sc2c(c1C)C(c1ccc(Cl)cc1)=N[C@@H](Cc1nc(CCl)co1)c1nnc(C)n1-2 [Compound 27, 2-(4-(4-chlorophenyl)-2,3,9-trimethyl-6H-thieno[3,2-f][1,2,4]triazolo[4,3-a][1,4]diaza-6-yl)-4-chloromethyloxazole]",29

# Same assay, conditions: Homo sapiens, CWR22Rv1, 144 h; cultured for 6 days, CCK-8; read-out: IC50 on CWR22RV1
row,SMILES,IC50 [nM]
1,"Cc1sc2c(c1C)C(c1ccc(Cl)cc1)=N[C@@H](Cc1nnc(CCl)o1)c1nnc(C)n1-2 [Compound 4, (S)-2-chloromethyl-5-((4-(4-chlorophenyl)-2,3,9-trimethyl-6H-thieno[3,2-f][1,2,4]triazolo[4,3-a][1,4]diaza-6-yl)methyl)-1,3,4-oxodiazole]",28
2,"COCc1nnc(C[C@@H]2N=C(c3ccc(Cl)cc3)c3c(sc(C)c3C)-n3c(C)nnc32)o1 [Compound 5, (S)-2-((4-(4-chlorophenyl)-2,3,9-trimethyl-6H-thieno[3,2-f][1,2,4]triazolo[4,3-a][1,4]diaza-6-yl)methyl)-5-(methoxylmethyl)-1,3,4-oxodiazole]",45
3,"CC(=O)NCc1nnc(C[C@@H]2N=C(c3ccc(Cl)cc3)c3c(sc(C)c3C)-n3c(C)nnc32)o1 [Compound 9, (S)-N-((5-((4-(4-chlorophenyl)-2,3,9-trimethyl-6H-thieno[3,2-f][1,2,4]triazolo[4,3-a][1,4]diaza-6-yl)methyl)-1,3,4-oxodiazole-2-yl)methyl)acetylamine]",110
4,"Cc1sc2c(c1C)C(c1ccc(Cl)cc1)=N[C@@H](Cc1nnc(CNS(C)(=O)=O)o1)c1nnc(C)n1-2 [Compound 10, (S)-N-((5-((4-(4-chlorophenyl)-2,3,9-trimethyl-6H-thieno[3,2-f][1,2,4]triazolo[4,3-a][1,4]diaza-6-yl)methyl) -1,3,4-oxodiazole-2-yl)methyl) methanesulfonamide]",63
5,"C=CC(=O)NCc1nnc(C[C@@H]2N=C(c3ccc(Cl)cc3)c3c(sc(C)c3C)-n3c(C)nnc32)o1 [Compound 11, (S)-N-((5-((4-(4-chlorophenyl)-2,3,9-trimethyl-6H-thieno[3,2-f][1,2,4]triazolo[4,3-a][1,4]diaza-6-yl)methyl)-1,3,4-oxodiazole-2-yl)methyl)acrylamide]",54
6,"Cc1sc2c(c1C)C(c1ccc(Cl)cc1)=N[C@@H](Cc1nnc(CN3CCS(=O)(=O)CC3)o1)c1nnc(C)n1-2 [Compound 12, (S)-4-((5-((4-(4-chlorophenyl)-2,3,9-trimethyl-6H-thieno[3,2-f] [1,2,4]triazolo[4,3-a][1,4]diaza-6-yl)methyl)-1,3,4-oxodiazole-2-yl)methyl)thiomorpholine 1,1-dioxide]",110
7,"Cc1sc2c(c1C)C(c1ccc(Cl)cc1)=N[C@@H](Cc1nnc(CNCCO)o1)c1nnc(C)n1-2 [Compound 14, (S)-2-(((5-((4-(4-chlorophenyl)-2,3,9-trimethyl-6H-thieno[3,2-f][1,2,4]triazolo[4,3-a][1,4]diaza-6-yl)methyl)-1,3,4-oxodiazole-2-yl)methyl)amino)ethanol]",163
8,"COC(=O)C1CCN(Cc2nnc(C[C@@H]3N=C(c4ccc(Cl)cc4)c4c(sc(C)c4C)-n4c(C)nnc43)o2)CC1 [Compound 15, (S)-methyl-1-((5-((4-(4-chlorophenyl)-2,3,9-trimethyl-6H-thieno[3,2-f][1,2,4]triazolo[4,3-a][1,4]diaza-6-yl)methyl) -1,3,4-oxodiazole-2-yl)methyl)piperidin-4-carboxylic ester]",59
9,"Cc1sc2c(c1C)C(c1ccc(Cl)cc1)=N[C@@H](Cc1nnc(CN3CCC(C(=O)O)CC3)o1)c1nnc(C)n1-2 [Compound 16, (5)-1-((5-((4-(4-chlorophenyl)-2,3,9-trimethyl-6H-thieno[3,2-f][1,2,4]triazolo[4,3-a][1,4]diaza-6-yl)methyl)-1,3,4-oxodiazole-2-yl)methyl)piperidin-4-carboxylic acid]",2650
10,"Cc1sc2c(c1C)C(c1ccc(Cl)cc1)=N[C@@H](Cc1nnc(CN3CC(C(=O)O)C3)o1)c1nnc(C)n1-2 [Compound 17, (5)-1-((5-((4-(4-chlorophenyl)-2,3,9-trimethyl-6H-thieno[3,2-f][1,2,4]triazolo[4,3-a][1,4]diaza-6-yl)methyl)-1,3,4-oxodiazole-2-yl)methyl)azacyclobutane-3-carboxylic acid]",2380
11,"Cc1sc2c(c1C)C(c1ccc(Cl)cc1)=N[C@@H](Cc1nnc(CN3CC(O)C3)o1)c1nnc(C)n1-2 [Compound 18, (5)-1-((5-((4-(4-chlorophenyl)-2,3,9-trimethyl-6H-thieno[3,2-f][1,2,4]triazolo[4,3-a][1,4]diaza-6-yl)methyl)-1,3,4-oxodiazole-2-yl)methyl)azacyclobutane-3-ol]",89
12,"Cc1noc(C[C@@H]2N=C(c3ccc(Cl)cc3)c3c(sc(C)c3C)-n3c(C)nnc32)n1 [Compound 30, (S)-5-((4-(4-chlorophenyl)-2,3,9-trimethyl-6H-thieno[3,2-f][1,2,4]triazolo[4,3-a][1,4]diaza-6-yl)methyl)-3-methyl-1,2,4-oxodiazole]",47
